Source: patent publication US20230242538A1, “PanK Modulators and Methods Using Same” (YALE UNIVERSITY, priority 2020, published 2023)
Like-named read-outs stand apart in the source and are kept apart here.

What was measured:
hPanK3 = hPanK3 (Homo sapiens, UniProt Q9H999); assay: Modulation of human PanK (hPanK3); assay type: biochemical; settings: for IC50: Table 1; for AC50: Table 2, activation
Description: (§1) Compounds of interest were assayed for their activity as inhibitors of fungal pantothenate kinase (PanK), modulators of human PanK, and general toxicity against HeLa cells.

S. cerevisiae monster = assay: Growth inhibition of S. cerevisiae monster; assay type: cell-based; settings: Saccharomyces cerevisiae; 200 μM of compound (μg/mL equivalent in brackets), VFM medium with no pantothenic acid, 24 h, 10^5 cells/ml
Description: In Table 1, “mixed” indicates a compound that is an activator at lower concentrations and is an inhibitor at higher concentrations. % growth inhibition S. cerevisiae monster was determined at 200 μM of compound in VFM medium with no pantothenic acid at 24 h (10^5 cells/ml).

[1] = biological target: A. fumigatus enzyme (AfPanK) (Aspergillus fumigatus, UniProt Q4WWV3); assay: Inhibition of A. fumigatus pantothenate kinase (AfPanK); assay type: biochemical; settings: read-out: A. fum. IC50
Sequence of A. fumigatus enzyme (AfPanK) (Q4WWV3 entry or part of it): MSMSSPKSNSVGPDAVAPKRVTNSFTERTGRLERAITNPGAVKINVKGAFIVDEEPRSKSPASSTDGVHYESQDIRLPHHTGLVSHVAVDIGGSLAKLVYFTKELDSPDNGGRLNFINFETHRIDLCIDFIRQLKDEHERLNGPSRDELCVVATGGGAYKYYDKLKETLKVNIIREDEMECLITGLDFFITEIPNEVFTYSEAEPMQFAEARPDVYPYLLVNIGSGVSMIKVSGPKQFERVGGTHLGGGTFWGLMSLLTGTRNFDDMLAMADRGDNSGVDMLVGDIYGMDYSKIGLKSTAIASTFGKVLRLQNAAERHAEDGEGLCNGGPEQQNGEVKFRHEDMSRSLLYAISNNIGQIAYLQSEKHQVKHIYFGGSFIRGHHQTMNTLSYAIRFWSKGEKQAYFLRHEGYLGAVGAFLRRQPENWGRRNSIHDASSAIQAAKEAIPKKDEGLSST

HeLa cells = assay: General toxicity against HeLa cells, 72 hr; assay type: cell-based; settings: for EC50: Homo sapiens, HeLa
Description: as §1

Cab1 = biological target: T1, Cab1 (Saccharomyces cerevisiae, UniProt Q04430); assay: Inhibition of Cab1 pantothenate kinase; assay type: biochemical
T1 construct: His6; made in house
T1 sequence (Q04430 whole entry): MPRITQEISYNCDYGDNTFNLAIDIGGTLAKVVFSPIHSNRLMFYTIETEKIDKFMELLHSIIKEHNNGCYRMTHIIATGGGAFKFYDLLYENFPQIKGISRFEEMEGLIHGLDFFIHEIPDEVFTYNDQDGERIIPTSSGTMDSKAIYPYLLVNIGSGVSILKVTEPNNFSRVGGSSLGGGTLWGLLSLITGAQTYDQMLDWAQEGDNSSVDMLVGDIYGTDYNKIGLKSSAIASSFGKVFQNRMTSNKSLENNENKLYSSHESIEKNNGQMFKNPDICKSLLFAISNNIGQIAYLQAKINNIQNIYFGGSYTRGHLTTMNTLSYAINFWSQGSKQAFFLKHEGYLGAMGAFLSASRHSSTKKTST
Description: The activity of recombinant His6-tagged Cab1p and cab1^G351S was determined in vitro using the Kinase-Glo Plus Luminescent Kinase (Kinase-Glo) assay as described in Chiu, et al., 2017, Scientific Reports 7:14234. The assay measures the amount of ATP remaining in solution following the kinase reaction. Briefly, kinase buffer consisted of 100 mM Tris-HCl pH 7.4, 10 mM MgCl2, 100 μM pantothenate (PA), 100 μM ATP, and 0.5 mg/mL γ-globulin. Kinase reactions were initiated with the addition of 500 ng of purified Cab1p or Cab1^G351S in elution buffer (10 mM Tris pH 7.4, NaCl 10 mM, 500 mM imidazole). Heat-inactivated (80° C. for 20 min) Cab1p or Cab were used as controls. Samples were incubated at room temperature for 1 hour. At the end of the incubation, an equal volume (10 μL) of Kinase-Glo reagent was added to each sample, the plates were further incubated for 5 min and luminescence was recorded using BioTek SynergyMx microplate reader (excitation wavelength 485; emission wavelength 528).
as §1

[2] = Table 1, read-out: EC50 HeLa Tox 72 hr
[3] = read-out: A cer. Cab1 IC50 μM, Table 2
[4] = Table 2, read-out: EC50 HeLa Tox 72 hr

Sequence of hPanK3 (Q9H999 whole entry): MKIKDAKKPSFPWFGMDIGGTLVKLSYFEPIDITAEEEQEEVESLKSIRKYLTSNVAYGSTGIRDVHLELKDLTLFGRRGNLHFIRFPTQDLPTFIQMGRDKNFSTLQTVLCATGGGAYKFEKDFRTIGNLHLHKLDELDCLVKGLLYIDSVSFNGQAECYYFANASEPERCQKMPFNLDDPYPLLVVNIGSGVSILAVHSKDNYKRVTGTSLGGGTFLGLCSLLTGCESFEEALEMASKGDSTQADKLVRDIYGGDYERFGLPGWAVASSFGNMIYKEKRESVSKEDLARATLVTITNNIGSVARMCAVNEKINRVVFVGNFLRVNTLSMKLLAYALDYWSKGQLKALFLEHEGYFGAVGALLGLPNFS

Cc1cc(C(=O)Nc2ccccn2)n2nc(NCc3ccc(C(C)(C)C)cc3)nc2n1 [Compound A7]
IC50 (hPanK3): > 100 µM
inhibition at 200 µM (S. cerevisiae monster): 79%
IC50 ([1]; Table 1): > 50 µM

CC(C)(C)c1ccc(CNc2nc3nc(CN4CCOCC4)cc(N)n3n2)cc1 [Compound A13]
EC50 (HeLa cells; [2]): > 100 µM
inhibition at 200 µM (S. cerevisiae monster): 25%
IC50 ([1]; Table 1): 71 µM

CN1CCN(Cc2cc(=O)n3nc(-c4ccc(C(C)(C)C)cc4)nc3[nH]2)CC1 [Compound A5, 2-(4-(tert-butyl)phenyl)-5-((4-methylpiperazin-1-yl)methyl)-[1,2,4]triazolo[1,5-a]pyrimidin-7(4H)-one]
EC50 HeLa Tox 72 hr μM (HeLa cells; Table 1): Inactive
IC50 (hPanK3): > 100 µM
inhibition at 200 µM (S. cerevisiae monster): 86%
IC50 ([1]; Table 1): 5.5 µM

CN1CCN(Cc2cc(=O)n3nc(NCc4ccc(C(C)(C)C)cc4)nc3[nH]2)CC1 [Compound B8]
EC50 HeLa Tox 72 hr μM (HeLa cells; Table 2): Inactive
AC50 (hPanK3): 0.16 µM
IC50 ([1]; Table 2): 0.89 µM
IC50 (Cab1; [3]): 0.55 µM

CNc1cc(CN2CCOCC2)nc2nc(NCc3ccc(C(C)(C)C)cc3)nn12 [Compound B5]
EC50 (HeLa cells; [4]): > 100 µM
AC50 (hPanK3): 0.038 µM
IC50 ([1]; Table 2): 28 µM
IC50 (Cab1; [3]): 9.4 µM

Cc1cc(C(=O)O)n2nc(NCc3ccc(C(C)(C)C)cc3)nc2n1 [Compound A3]
EC50 (HeLa cells; [2]): > 100 µM
IC50 (hPanK3): > 5 µM
inhibition at 200 µM (S. cerevisiae monster): 87%
IC50 ([1]; Table 1): 0.086 µM

CC(C)(C)c1ccc(CNc2nc3nc(CN4CCOCC4)cc(OCC(N)=O)n3n2)cc1 [Compound A11]
inhibition at 200 µM (S. cerevisiae monster): 77%
IC50 ([1]; Table 1): 62 µM

CC(C)(C)OC(=O)N1CCN(Cc2cc(=O)n3nc(NCc4ccc(C(C)(C)C)cc4)nc3[nH]2)CC1 [Compound A2]
EC50 HeLa Tox 72 hr μM (HeLa cells; Table 1): Inactive
inhibition at 200 µM (S. cerevisiae monster): 87%
IC50 ([1]; Table 1): 0.083 µM

CC(C)(C)c1ccc(CNc2nc3nc(CN4CCOCC4)cc(OCC(=O)O)n3n2)cc1 [Compound A14]
inhibition at 200 µM (S. cerevisiae monster): 49%
IC50 ([1]; Table 1): 78 µM

Cc1cc(C(=O)NCCO)n2nc(NCc3ccc(C(C)(C)C)cc3)nc2n1 [Compound A9]
IC50 (hPanK3): > 100 µM
inhibition at 200 µM (S. cerevisiae monster): 102%
IC50 ([1]; Table 1): > 50 µM

CC(C)(C)c1ccc(CNc2nc3[nH]c(CN4CCOCC4)cc(=O)n3n2)cc1 [Compound B6]
EC50 HeLa Tox 72 hr μM (HeLa cells; Table 2): Inactive
AC50 (hPanK3): 0.058 µM
IC50 ([1]; Table 2): 0.26 µM
IC50 (Cab1; [3]): 0.19 µM

CC(C)c1ccc(CNc2nc3[nH]c(CN4CCCC4)cc(=O)n3n2)cc1 [Compound B4, 2-((4-isopropylbenzyl)amino)-5-(pyrrolidin-1-ylmethyl)-[1,2,4]triazolo[1,5-a]pyrimidin-7(4H)-one]
EC50 HeLa Tox 72 hr μM (HeLa cells; Table 2): Inactive
AC50 (hPanK3): 0.032 µM
IC50 ([1]; Table 2): 11 µM
IC50 (Cab1): > 100 µM

Cc1ccccc1-c1nc2[nH]c(CNc3ccccc3)cc(=O)n2n1 [Compound B3, 5-((phenylamino)methyl)-2-(o-tolyl)-[1,2,4]triazolo[1,5-a]pyrimidin-7(4H)-one]
EC50 HeLa Tox 72 hr μM (HeLa cells; Table 2): Inactive
AC50 (hPanK3): 0.024 µM
IC50 ([1]; Table 2): 10 µM
IC50 (Cab1): > 100 µM

CC(C)c1ccc(CNc2nc3[nH]c(CN4CCOCC4)cc(=O)n3n2)cc1 [Compound B1, 2-((4-isopropylbenzyl)amino)-5-(morpholinomethyl)-[1,2,4]triazolo[1,5-a]pyrimidin-7(4H)-one]
EC50 HeLa Tox 72 hr μM (HeLa cells; Table 2): Inactive
AC50 (hPanK3): 0.0017 µM
IC50 ([1]; Table 2): 0.25 µM
IC50 (Cab1): 0.43 µM

Cc1cc(C(=O)NCC(N)=O)n2nc(NCc3ccc(C(C)(C)C)cc3)nc2n1 [Compound A4]
IC50 (hPanK3): > 100 µM
inhibition at 200 µM (S. cerevisiae monster): 62%
IC50 ([1]; Table 1): 2.4 µM

CC(C)NCc1cc(=O)n2nc(NCc3ccc(C(C)C)cc3)nc2[nH]1 [Compound A10, 5-((isopropylamino)methyl)-2-((4-isopropylbenzyl)amino)-[1,2,4]triazolo[1,5-a]pyrimidin-7(4H)-one]
inhibition at 200 µM (S. cerevisiae monster): 13%
IC50 ([1]; Table 1): 53 µM

CCOc1cc(CN2CCOCC2)nc2nc(NCc3ccc(C(C)(C)C)cc3)nn12 [Compound A15]
inhibition at 200 µM (S. cerevisiae monster): 37%
IC50 ([1]; Table 1): 98 µM

Cc1cc(C(=O)NCc2cccnc2)n2nc(NCc3ccc(C(C)(C)C)cc3)nc2n1 [Compound A17]
IC50 (hPanK3): > 100 µM
inhibition at 200 µM (S. cerevisiae monster): 63%
IC50 ([1]; Table 1): ~100 µM

CN(C)c1cc(CN2CCOCC2)nc2nc(NCc3ccc(C(C)(C)C)cc3)nn12 [Compound B7]
EC50 (HeLa cells; [4]): > 100 µM
AC50 (hPanK3): 0.076 µM
IC50 ([1]; Table 2): 44 µM
IC50 (Cab1; [3]): > 100 µM

COc1cc(CN2CCOCC2)nc2nc(NCc3ccc(C(C)(C)C)cc3)nn12 [Compound A6]
EC50 (HeLa cells; [2]): > 100 µM
IC50 (hPanK3): > 100 µM
inhibition at 200 µM (S. cerevisiae monster): 34%
IC50 ([1]; Table 1): 31 µM

CC(C)(C)c1ccc(CNc2nc3[nH]c(CN4CCCCC4)cc(=O)n3n2)cc1 [Compound B9]
EC50 (HeLa cells; [4]): > 100 µM
AC50 (hPanK3): 0.27 µM
IC50 ([1]; Table 2): 1.8 µM
IC50 (Cab1; [3]): 30 µM

CC(C)(C)c1ccc(CNc2nc3nc(CN4CCOCC4)cc(OCCO)n3n2)cc1 [Compound A12]
inhibition at 200 µM (S. cerevisiae monster): 94%
IC50 ([1]; Table 1): 68 µM

Cc1cc(C(=O)NCC(=O)O)n2nc(NCc3ccc(C(C)(C)C)cc3)nc2n1 [Compound A18]
IC50 (hPanK3): > 100 µM
inhibition at 200 µM (S. cerevisiae monster): 29%
IC50 ([1]; Table 1): ~100 µM

CC(=O)N1CCN(Cc2cc(=O)n3nc(NCc4ccc(C(C)(C)C)cc4)nc3[nH]2)CC1 [Compound A1]
EC50 HeLa Tox 72 hr μM (HeLa cells; Table 1): Inactive
inhibition at 200 µM (S. cerevisiae monster): 98%
IC50 ([1]; Table 1): 0.036 µM

COC(=O)CNC(=O)c1cc(C)nc2nc(NCc3ccc(C(C)(C)C)cc3)nn12 [Compound A8]
IC50 (hPanK3): > 100 µM
inhibition at 200 µM (S. cerevisiae monster): 67%
IC50 ([1]; Table 1): > 50 µM

CC(C)(C)c1ccc(CNc2nc3nc(CN4CCOCC4)cc(Cl)n3n2)cc1 [Compound A16]
EC50 (HeLa cells; [2]): 2.3 µM
IC50 (hPanK3): > 100 µM
inhibition at 200 µM (S. cerevisiae monster): 80%
IC50 ([1]; Table 1): ~100 µM

Cc1cc(=O)n2nc(NCc3ccc(C(C)C)cc3)nc2[nH]1 [Compound B2, 2-((4-isopropylbenzyl)amino)-5-methyl-[1,2,4]triazolo[1,5-a]pyrimidin-7(4H)-one]
EC50 (HeLa cells; [4]): > 100 µM
AC50 (hPanK3): 0.0053 µM
IC50 ([1]; Table 2): 0.27 µM
IC50 (Cab1): > 100 µM
